Reference: paper PMC6922598, “De novo design of a homo-trimeric amantadine-binding protein” (eLife, 2019)

Target: T1, ABP (amantadine-binding protein)
T1 construct: de novo designed homo-trimer; GSHMG//[…]
Assay: X-ray crystal structure ([…] Å) and neutron structure ([…] Å) of the complex; NMR titration with TITAN line shape fitting (Kd)
Parameters: species or system synthetic construct

For `NC12CC3CC(CC(C3)C1)C2` [amantadine], the Kd was 24.1 ± 2.7 µM.
